For the assay, the target named is human PCSK9 (Homo sapiens, UniProt Q8NBP7). The assay can be described thus: PCSK9 ligand binding TR-FRET assay (interference with binding of human PCSK9 to human LDLR). The settings on record: for Max % inhibition: PCSK9 FRET assay, efficacy (Amax), 100% = 1 uM unlabeled human PCSK9, 0% = DMSO; for IC50: TR-FRET, human PCSK9 Alexa Fluor 647 / human LDLR extracellular domain-Europium Kryptate, read-out: PCSK9 FRET Assay IC50. In a few lines:
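Threefold compound dilutions were pre-incubated 30 min with PCSK9, after which 4 nM Europium Kryptate-tagged human LDLR ectodomain was added for a further 2 h.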
For orientation: In TR-FRET formats the signal depends on donor and acceptor labels being close together.

The term IC50 denotes the concentration that gives 50% inhibition.

Sequence of human PCSK9 (Q8NBP7 153-692): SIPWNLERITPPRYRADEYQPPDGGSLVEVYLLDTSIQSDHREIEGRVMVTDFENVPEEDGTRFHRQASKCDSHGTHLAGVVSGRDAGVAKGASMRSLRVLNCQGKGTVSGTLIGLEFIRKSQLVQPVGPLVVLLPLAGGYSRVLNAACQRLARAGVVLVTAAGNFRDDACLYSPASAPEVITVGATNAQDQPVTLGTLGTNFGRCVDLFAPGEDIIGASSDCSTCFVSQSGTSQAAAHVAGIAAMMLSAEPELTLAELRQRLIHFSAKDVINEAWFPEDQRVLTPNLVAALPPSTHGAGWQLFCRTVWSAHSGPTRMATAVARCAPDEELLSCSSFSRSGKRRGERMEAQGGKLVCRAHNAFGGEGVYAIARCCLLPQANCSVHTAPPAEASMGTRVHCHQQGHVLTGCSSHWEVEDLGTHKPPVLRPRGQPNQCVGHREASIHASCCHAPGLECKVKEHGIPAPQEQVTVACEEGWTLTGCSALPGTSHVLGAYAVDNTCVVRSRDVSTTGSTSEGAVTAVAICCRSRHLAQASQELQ
Sequence of human PCSK9 (Q8NBP7 31-152 partner limits assumed): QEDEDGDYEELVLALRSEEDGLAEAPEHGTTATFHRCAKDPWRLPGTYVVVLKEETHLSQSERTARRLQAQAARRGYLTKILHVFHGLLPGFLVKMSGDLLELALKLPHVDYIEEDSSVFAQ

In the case of `COC[C@@H]1NC(=O)[C@H](CCCN2CCCC2)N(Cc2ccc(Cl)cc2Oc2ccc(-c3cnc(CN(C)C)n3C)cc2)C(=O)C[C@@H](Cc2cccc[n+]2[O-])C(=O)N(C)[C@H]2CCCC[C@@H]2NC(=O)C[C@H](Cc2ccc(Cl)cc2)N(C)C1=O` [Compound 111, 2-(((4S,7S,10S,14R,16aS,20aS)-11-(4-chloro-2-(4-(2-((dimethylamino)methyl)-1-methyl-1H-imidazol-5-yl)phenoxy)benzyl)-4-(4-chlorobenzyl)-7-(methoxymethyl)-5,16-dimethyl-2,6,9,12,15-pentaoxo-10-(3-(pyrrolidin-1-yl)propyl)docosahydrobenzo[l][1,4,7,11,14]pentaazacyclooctadecin-14-yl)methyl)pyridine 1-oxide], the Max % inhibition amounted to 103.17% and the IC50 was 0.9 nM.

For the molecule `COC[C@@H]1NC(=O)[C@H](C)N(Cc2ccc(Cl)cc2Oc2ccc(-n3cnc(CN4CC5(COC5)C4)c3C)cc2)C(=O)C[C@@H](Cc2ccccc2)C(=O)N(C)[C@@H](C)CNC(=O)C[C@H](Cc2ccc(Cl)cc2)N(C)C1=O` [Compound 112, (2S,5S,8S,13S,16R)-1-(2-(4-(4-(2-oxa-6-azaspiro[3.3]heptan-6-ylmethyl)-5-methyl-1H-imidazol-1-yl)phenoxy)-4-chlorobenzyl)-16-benzyl-8-(4-chlorobenzyl)-5-(methoxymethyl)-2,7,13,14-tetramethyl-1,4,7,11,14-pentaazacyclooctadecane-3,6,10,15,18-pentaone], the Max % inhibition was determined as 107.46% and the IC50 came to 3.2 nM.

`COC[C@@H]1NC(=O)[C@H](C)N(Cc2ccc(Cl)cc2Oc2cccc(C(=O)NC3CCNCC3)c2)C(=O)C[C@@H](Cc2ccccc2)C(=O)N(C)[C@@H](C)CNC(=O)C[C@H](Cc2ccc(Cl)cc2)N(C)C1=O` [Compound 113, 3-(2-(((2S,5S,8S,13S,16R)-16-benzyl-8-(4-chlorobenzyl)-5-(methoxymethyl)-2,7,13,14-tetramethyl-3,6,10,15,18-pentaoxo-1,4,7,11,14-pentaazacyclooctadecan-1-yl)methyl)-5-chlorophenoxy)-N-(piperidin-4-yl)benzamide]: the Max % inhibition was determined as 53.35% and the IC50 was 299 nM.

With `COC[C@@H]1NC(=O)[C@H](C)N(Cc2ccc(Cl)cc2Oc2ccc(-c3nnc4n3CCNC4)cc2)C(=O)C[C@@H](Cc2ccccc2)C(=O)N(C)[C@@H](C)CNC(=O)C[C@H](Cc2ccc(Cl)cc2)N(C)C1=O` [Compound 114, (2S,5S,8S,13S,16R)-16-benzyl-1-(4-chloro-2-(4-(5,6,7,8-tetrahydro-[1,2,4]triazolo[4,3-a]pyrazin-3-yl)phenoxy)benzyl)-8-(4-chlorobenzyl)-5-(methoxymethyl)-2,7,13,14-tetramethyl-1,4,7,11,14-pentaazacyclooctadecane-3,6,10,15,18-pentaone], the Max % inhibition stood at 57.46% and the half-inhibitory concentration (IC50) was found to be 4.5 nM.

Turning to `COC[C@@H]1NC(=O)[C@H](C)N(Cc2ccc(Cl)cc2Oc2ccc(-c3cnc4c(c3)CNCC4)cc2)C(=O)C[C@@H](Cc2ccccc2)C(=O)N(C)[C@@H](C)CNC(=O)C[C@H](Cc2ccc(Cl)cc2)N(C)C1=O` [Compound 115, (2S,5S,8S,13S,16R)-16-benzyl-1-(4-chloro-2-(4-(5,6,7,8-tetrahydro-1,6-naphthyridin-3-yl)phenoxy)benzyl)-8-(4-chlorobenzyl)-5-(methoxymethyl)-2,7,13,14-tetramethyl-1,4,7,11,14-pentaazacyclooctadecane-3,6,10,15,18-pentaone], the Max % inhibition was 72.72% and the IC50 is 5.3 nM.

Regarding `COCC(=O)N1CCn2c(nnc2-c2ccc(Oc3cc(Cl)ccc3CN3C(=O)C[C@@H](Cc4ccccc4)C(=O)N(C)[C@@H](C)CNC(=O)C[C@H](Cc4ccc(Cl)cc4)N(C)C(=O)[C@H](COC)NC(=O)[C@@H]3C)cc2)C1` [Compound 116, (2S,5S,8S,13S,16R)-16-benzyl-1-(4-chloro-2-(4-(7-(2-methoxyacetyl)-5,6,7,8-tetrahydro-[1,2,4]triazolo[4,3-a]pyrazin-3-yl)phenoxy)benzyl)-8-(4-chlorobenzyl)-5-(methoxymethyl)-2,7,13,14-tetramethyl-1,4,7,11,14-pentaazacyclooctadecane-3,6,10,15,18-pentaone], the Max % inhibition came out at 59.45% and the IC50 came to 4.8 nM.

On to `COCC(=O)N1CCc2ncc(-c3ccc(Oc4cc(Cl)ccc4CN4C(=O)C[C@@H](Cc5ccccc5)C(=O)N(C)[C@@H](C)CNC(=O)C[C@H](Cc5ccc(Cl)cc5)N(C)C(=O)[C@H](COC)NC(=O)[C@@H]4C)cc3)cc2C1` [Compound 117, (2S,5S,8S,13S,16R)-16-benzyl-1-(4-chloro-2-(4-(6-(2-methoxyacetyl)-5,6,7,8-tetrahydro-1,6-naphthyridin-3-yl)phenoxy)benzyl)-8-(4-chlorobenzyl)-5-(methoxymethyl)-2,7,13,14-tetramethyl-1,4,7,11,14-pentaazacyclooctadecane-3,6,10,15,18-pentaone], for which the Max % inhibition came out at 67.25% and the 50% inhibitory concentration (IC50) stood at 4.2 nM.

For `COC[C@@H]1NC(=O)[C@H](C)N(Cc2ccc(Cl)cc2Oc2cccc(C(=O)NC3CCN(C)CC3)c2)C(=O)C[C@@H](Cc2ccccc2)C(=O)N(C)[C@@H](C)CNC(=O)C[C@H](Cc2ccc(Cl)cc2)N(C)C1=O` [Compound 118, 3-(2-(((2S,5S,8S,13S,16R)-16-benzyl-8-(4-chlorobenzyl)-5-(methoxymethyl)-2,7,13,14-tetramethyl-3,6,10,15,18-pentaoxo-1,4,7,11,14-pentaazacyclooctadecan-1-yl)methyl)-5-chlorophenoxy)-N-(1-methylpiperidin-4-yl)benzamide], the Max % inhibition was 65.13% and the IC50 is 24.6 nM.

Consider `CCN(CC)Cc1cn(-c2ccc(Oc3cc(Cl)ccc3CN3C(=O)C[C@@H](Cc4ccccc4)C(=O)N(C)[C@@H](C)CNC(=O)C[C@H](Cc4ccc(Cl)cc4)N(C)C(=O)[C@H](COC)NC(=O)[C@@H]3C)cc2)nn1` [Compound 120, (2S,5S,8S,13S,16R)-16-benzyl-1-(4-chloro-2-(4-(4-((diethylamino)methyl)-1H-1,2,3-triazol-1-yl)phenoxy)benzyl)-8-(4-chlorobenzyl)-5-(methoxymethyl)-2,7,13,14-tetramethyl-1,4,7,11,14-pentaazacyclooctadecane-3,6,10,15,18-pentaone], for which the Max % inhibition stood at 48.04% and the IC50 is 23.6 nM.

Consider `COC[C@@H]1NC(=O)[C@H](C)N(Cc2ccc(Cl)cc2Oc2ccc(-c3cnc4n3CCNC4)cc2)C(=O)C[C@@H](Cc2ccccc2)C(=O)N(C)[C@@H](C)CNC(=O)C[C@H](Cc2ccc(Cl)cc2)N(C)C1=O.O=C(O)C(F)(F)F` [Compound 121, (2S,5S,8S,13S,16R)-16-benzyl-1-(4-chloro-2-(4-(5,6,7,8-tetrahydroimidazo[1,2-a]pyrazin-3-yl)phenoxy)benzyl)-8-(4-chlorobenzyl)-5-(methoxymethyl)-2,7,13,14-tetramethyl-1,4,7,11,14-pentaazacyclooctadecane-3,6,10,15,18-pentaone trifluoroacetate], for which the Max % inhibition is 59.89% and the IC50 is 2.8 nM.

Take `COC[C@@H]1NC(=O)[C@H](C)N(Cc2ccc(Cl)cc2Oc2ccc(-c3ccc(C(=O)NC4CCNCC4)nc3)cc2)C(=O)C[C@@H](Cc2ccccc2)C(=O)N(C)[C@@H](C)CNC(=O)C[C@H](Cc2ccc(Cl)cc2)N(C)C1=O.O=C(O)C(F)(F)F` [Compound 122, 5-(4-(2-(((2S,5S,8S,13S,16R)-16-benzyl-8-(4-chlorobenzyl)-5-(methoxymethyl)-2,7,13,14-tetramethyl-3,6,10,15,18-pentaoxo-1,4,7,11,14-pentaazacyclooctadecan-1-yl)methyl)-5-chlorophenoxy)phenyl)-N-(piperidin-4-yl)picolinamide trifluoroacetate]: the Max % inhibition was 55.05% and the IC50 amounted to 8.7 nM.

As to `COC[C@@H]1NC(=O)[C@H](C)N(Cc2ccc(Cl)cc2Oc2ccc(-c3cnc4n3CCN(C(C)C)C4)cc2)C(=O)C[C@@H](Cc2ccccc2)C(=O)N(C)[C@@H](C)CNC(=O)C[C@H](Cc2ccc(Cl)cc2)N(C)C1=O.O=C(O)C(F)(F)F` [Compound 123, (2S,5S,8S,13S,16R)-16-benzyl-1-(4-chloro-2-(4-(7-isopropyl-5,6,7,8-tetrahydroimidazo[1,2-a]pyrazin-3-yl)phenoxy)benzyl)-8-(4-chlorobenzyl)-5-(methoxymethyl)-2,7,13,14-tetramethyl-1,4,7,11,14-pentaazacyclooctadecane-3,6,10,15,18-pentaone trifluoroacetate], the Max % inhibition came out at 74.19% and the IC50 was found to be 3.4 nM.

`COC[C@@H]1NC(=O)[C@H](C)N(Cc2ccc(Cl)cc2Oc2ccc(-c3cnc4n3CCN(C(=O)C3CCNC3)C4)cc2)C(=O)C[C@@H](Cc2ccccc2)C(=O)N(C)[C@@H](C)CNC(=O)C[C@H](Cc2ccc(Cl)cc2)N(C)C1=O.O=C(O)C(F)(F)F` (stereo partly drawn) [Compound 124, (2S,5S,8S,13S,16R)-16-benzyl-1-(4-chloro-2-(4-(7-(pyrrolidine-3-carbonyl)-5,6,7,8-tetrahydroimidazo[1,2-a]pyrazin-3-yl)phenoxy)benzyl)-8-(4-chlorobenzyl)-5-(methoxymethyl)-2,7,13,14-tetramethyl-1,4,7,11,14-pentaazacyclooctadecane-3,6,10,15,18-pentaone trifluoroacetate]: the Max % inhibition is reported as 100.50% and the half-maximal inhibitory concentration (IC50) came to 3.8 nM.

Consider `C[C@H]1CNC(=O)C[C@H](Cc2ccc(Cl)cc2)N(C)C(=O)[C@H](CO)NC(=O)[C@H](C)N(Cc2ccc(Cl)cc2Oc2ccc3c(c2)C(=O)N(C2CCNCC2)C3)C(=O)C[C@@H](Cc2ccccc2)C(=O)N1C` [Compound 125, (2S,5S,8S,13S,16R)-16-benzyl-1-(4-chloro-2-((3-oxo-2-(piperidin-4-yl)isoindolin-5-yl)oxy)benzyl)-8-(4-chlorobenzyl)-5-(hydroxymethyl)-2,7,13,14-tetramethyl-1,4,7,11,14-pentaazacyclooctadecane-3,6,10,15,18-pentaone], for which the Max % inhibition is 60.93% and the IC50 came out at 28 nM.

The values are drawn from patent US20230089867A1, “CYCLIC PENTAMER COMPOUNDS AS PROPROTEIN CONVERTASE SUBTILISIN/KEXIN TYPE 9 (PCSK9) INHIBITORS FOR THE TREATMENT OF METABOLIC DISORDER” (Novartis AG, priority 2018, published 2023).
